pIC50: −log10 of the molar value. The source made the active and inactive calls. The rule behind the calls is not given here.
Legend:
Leishmania donovani [1] = test: Antimicrobial activity against promastigote stage of Leishmania donovani after 72 hrs by Alamar Blue assay; type: functional, organism-based; conditions: for pIC50: read-out: IC50
Leishmania donovani [2] = test: Antimicrobial activity against axenic amastigote stage of Leishmania donovani after 72 hrs by Alamar Blue assay; type: functional, organism-based; conditions: for pIC50: read-out: IC50
Leishmania donovani [3] = test: Antimicrobial activity against promastigote stage of Leishmania donovani infected in human THP1 cells after 72 hrs by Alamar Blue assay; type: functional, organism-based; conditions: for IC50: thp-1
Trypanosoma brucei = test: Antimicrobial activity against trypamastigote stage of Trypanosoma brucei after 72 hrs by Alamar Blue assay; type: functional, organism-based; conditions: for pIC50: read-out: IC50
THP-1 = test: Cytotoxicity against human THP1 cells up to 10 ug/ml after 48 hrs by neutral red assay; type: cell-based; conditions: thp-1, 48 h
Vero = test: Cytotoxicity against African green monkey Vero cells up to 25 ug/ml after 48 hrs by neutral red assay; type: cell-based; conditions: chlorocebus sabaeus
HepG2 [4] = test: Cytotoxicity against human HepG2 cells up to 25 ug/ml after 48 hrs by neutral red assay; type: cell-based; conditions: hepg2, 48 h
LLC-PK1 = test: Cytotoxicity against pig LLC-PK1 cells up to 25 ug/ml after 48 hrs by neutral red assay; type: cell-based, Sus scrofa; conditions: llc-pk1, 48 h
HepG2 [5] = test: Cytotoxicity against human HepG2 cells after 48 hrs by neutral red assay; type: cell-based; conditions: HepG2, 48 h

Row | IC90 (Trypanosoma brucei; Trypanosoma brucei, 72 h) [µM] | pIC50 (Trypanosoma brucei; Trypanosoma brucei, 72 h) | IC50 (Trypanosoma brucei) | IC90 (Trypanosoma brucei) | Compound | IC90 (Leishmania donovani [1]; Leishmania donovani, 72 h) [µM] | pIC50 (Leishmania donovani [1]; Leishmania donovani, 72 h) | IC50 (Leishmania donovani [2]) | IC90 (Leishmania donovani [2]) | IC90 (Leishmania donovani [3]; THP-1) | IC50 (Leishmania donovani [3]) | Activity (THP-1) | Activity (Vero) | Activity (HepG2 [4]) | Activity (LLC-PK1) | pIC50 (Leishmania donovani [2]; Leishmania donovani, 72 h) | IC90 (Leishmania donovani [2]; Leishmania donovani, 72 h) [µM] | IC90 (Leishmania donovani [3]; Leishmania donovani, THP-1, 72 h) [µM] | IC50 (Leishmania donovani [1]) | IC90 (Leishmania donovani [1]) | pIC50 (HepG2 [5])
1 | 14.5 | 5.05 | – | – | Clc1ccc(CN2CCc3c([nH]c4ccccc34)C2)s1 | 25.6 | 5.04 | Not Active | inactive | inactive | Not Active | Non-toxic | Non-toxic | Non-toxic | Non-toxic | – | – | – | – | – | –
2 | – | – | Not Active | inactive | Cn1cc(C(=O)N2CCc3c([nH]c4ccccc34)C2)c2ccccc21 | – | 4.28 | Not Active | inactive | inactive | Not Active | Non-toxic | Non-toxic | Non-toxic | Non-toxic | – | – | – | – | – | –
3 | 28.1 | 6.00 | – | – | O=[N+]([O-])c1ccc(CN2CCc3c([nH]c4ccccc34)C2)o1 | – | 4.47 | – | – | inactive | Not Active | Non-toxic | Non-toxic | Non-toxic | Non-toxic | 3.93 | – | – | – | – | –
4 | – | – | Not Active | inactive | O=C(c1ccc(-c2ccc(-c3ccccc3)cc2)o1)N1CCc2c([nH]c3ccccc23)C1 | 111 | 4.12 | – | – | inactive | Not Active | Non-toxic | Non-toxic | Non-toxic | Non-toxic | 4.08 | 110 | – | – | – | –
5 | 68.2 | 4.55 | – | – | NCCCC(N)(C(=O)O)C(F)F (configuration not stated) [EFLORNITHINE] | – | – | – | – | – | – | – | – | – | – | – | – | – | – | – | –
6 | – | – | Not Active | inactive | O=C(c1ccc(-c2cccc([N+](=O)[O-])c2)o1)N1CCc2c([nH]c3ccccc23)C1 | – | 4.18 | Not Active | inactive | inactive | Not Active | Non-toxic | Non-toxic | Non-toxic | Non-toxic | – | – | – | – | – | –
7 | – | – | Not Active | inactive | C[C@@H]1[C@H](O)[C@@H](C)/C=C/C=C/C=C/C=C/C=C/C=C/C=C/[C@H](O[C@@H]2O[C@H](C)[C@@H](O)[C@H](N)[C@@H]2O)C[C@@H]2O[C@](O)(C[C@@H](O)C[C@@H](O)[C@H](O)CC[C@@H](O)C[C@@H](O)CC(=O)O[C@H]1C)C[C@H](O)[C@H]2C(=O)O [AMPHOTERICIN B] | 0.4 | 6.52 | – | – | – | – | – | – | – | – | 6.52 | 0.4 | 0.5 | – | – | –
8 | 23.9 | 4.86 | – | – | O=C(c1ccc(Br)o1)N1CCc2c([nH]c3ccccc23)C1 | – | 4.56 | – | – | inactive | Not Active | Non-toxic | Non-toxic | Non-toxic | Non-toxic | 4.02 | 122 | – | – | – | –
9 | – | – | Not Active | inactive | O=C(c1ccc2ccccc2n1)N1CCc2c([nH]c3ccccc23)C1 | – | – | Not Active | inactive | inactive | Not Active | – | – | – | – | – | – | – | Not Active | inactive | –
10 | – | – | Not Active | inactive | O=C1NCCN1C(=O)N1CCc2c([nH]c3ccccc23)C1 | – | – | Not Active | inactive | inactive | Not Active | – | – | – | – | – | – | – | Not Active | inactive | –
11 | 26.3 | 4.80 | – | – | Cc1noc(C)c1CN1CCc2c([nH]c3ccccc23)C1 | – | – | Not Active | inactive | inactive | Not Active | Non-toxic | Non-toxic | Non-toxic | Non-toxic | – | – | – | Not Active | inactive | –
12 | – | – | Not Active | inactive | O=C(c1ccc(-c2cc(C(F)(F)F)ccc2Cl)o1)N1CCc2c([nH]c3ccccc23)C1 | 69.1 | 4.40 | – | – | inactive | Not Active | Non-toxic | – | – | – | 4.43 | 76 | – | – | – | 4.59
13 | – | – | Not Active | inactive | Cc1ncsc1C(=O)N1CCc2c([nH]c3ccccc23)C1 | – | – | Not Active | inactive | inactive | Not Active | – | – | – | – | – | – | – | Not Active | inactive | –

Source: ChEMBL document CHEMBL3352781, “Synthesis, antileishmanial and antitrypanosomal activities of N-substituted tetrahydro-β-carbolines” (Bioorg Med Chem Lett, 2014)
